Assay results reported in US20050113456A1, “Method of decreasing fat deposits and body weight in mammals and birds” (priority 2003, published 2005).
pKi: −log10 of the molar value. Where “and” joins values, the source holds several entries; their conditions need not be identical. Identical values can stand only once. Like-named read-outs stand apart in the source and are kept apart here.

What was measured:
Beta-3 receptor = Beta-3 receptor (Homo sapiens, UniProt P13945); settings: results obtained from BRIDGE PHARMA, Inc.; read-out: Affinity for receptor (Ki) Beta-3; cited from earlier work
Sequence of Beta-3 receptor (P13945 whole entry): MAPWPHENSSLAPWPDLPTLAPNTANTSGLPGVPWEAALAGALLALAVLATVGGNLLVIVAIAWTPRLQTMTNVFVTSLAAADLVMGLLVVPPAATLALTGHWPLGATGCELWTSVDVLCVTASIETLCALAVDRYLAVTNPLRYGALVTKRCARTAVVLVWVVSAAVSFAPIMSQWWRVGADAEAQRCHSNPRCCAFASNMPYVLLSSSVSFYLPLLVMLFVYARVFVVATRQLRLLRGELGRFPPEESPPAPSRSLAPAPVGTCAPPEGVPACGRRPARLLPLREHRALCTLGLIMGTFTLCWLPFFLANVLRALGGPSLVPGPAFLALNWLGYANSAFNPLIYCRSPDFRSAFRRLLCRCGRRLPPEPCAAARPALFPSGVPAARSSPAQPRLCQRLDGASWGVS

[1] = Reduction of body fat by the isomers of salbutamol; set-up: species or system mammals and birds; settings: in vivo
Cobb broilers = assay: Safety study in chicken: mortality; format: in vivo; settings: Day 14 to Day 28, Cobb broilers
Protocol: (§1) Three dietary treatments were used in this clinical study. […] After mixing, the diets were cold pelleted (65° C.).
Feed and water were available ad libitum. […] Mortality was recorded daily.

[2] = Efficacy study in chicken: abdominal fat pad and body weight gain; format: in vivo; settings: for Abdominal fat pad (% BW): day 21 to 42; for Influence on body weight gain (grams): gain during 21 to 42 days of age; for Reduction of fat pads: females; for Decrease of fat pads: males
Protocol: as §1
The birds were transferred to grower cages on day 15 and a commercial broiler finisher diet (18.9% crude protein) was fed. […] Animals (of uniform body weight) were distributed into groups of 24 birds each. (Additional treatment groups than those shown here were used and dosed differently.) Each of the dietary treatments was then randomly assigned to the treatment groups. The diets were fed from day 21 and the animals were slaughtered on Day 42. Feed and water were available ad libitum throughout the study. Body weights were recorded at weekly intervals.

[3] = Efficacy study in obese young mammals; settings: oral, obese young animals, preliminary results
[4] = Efficacy study in obese adult mammals; settings: oral, obese adult animals, preliminary results
[5] = cited from earlier work; for Reduction of fat pad: Rehfeldt et al. 1997
smooth muscle = settings: Yamaguchi et al. 1996; cited from earlier work
[6] = Protocol: Three dietary treatments were used in this clinical study. […] Sixty kilograms of each diet was prepared, and the drugs were mixed into the diets according to the standard operating procedures of the test facility. After mixing, the diets were cold pelleted (65° C.). The diets were analyzed for their concentration of test article immediately after the mixing and at predetermined intervals thereafter.
Day-old male broiler (Cobb) chicken were obtained from a commercial hatchery. The birds were raised in battery brooders housed in an environmentally controlled room and they received a commercial broiler starter diet from day 1 to 12. The birds were transferred to grower cages on day 12. On day 14, birds were weighed individually and birds with relatively high or low body weights were discarded. A total of 72 birds (of uniform body weight) were chosen and distributed into test groups so that average weights per test group were nearly equal. […] The diets were fed from day 14 to 28 and the animals were slaughtered on Day 29. Feed and water were available ad libitum. […] Mortality was recorded daily.

[7] = female broilers, 10 ppm in feed

α′[(tert-butylamino) methyl]-4-hydroxy-m-xylene-α,α′-diol [R-salbutamol]
pKi (Beta-3 receptor): < 5.00
Reduction of fat content in the bodies of mammals and birds [1]: potently and stereoselectively reducing the fat content
Mortality (out of 24 birds) (Cobb broilers; 5 ppm in feed): no fatalities and 0/24
Abdominal fat pad (% BW) ([2]; female broilers, 5 ppm in feed): 1.79 % BW
Influence on body weight gain (grams) ([2]; female broilers, 5 ppm in feed): 1646 grams
Abdominal fat pad (% BW) [2, 7]: 1.77 % BW
Influence on body weight gain (grams) [2, 7]: 1614 grams
Reduction of fat pads ([2]; 5 ppm): 19.4%
Reduction of fat pads ([2]; 10 ppm): 20.3%
Abdominal fat pad (% BW) ([2]; male broilers, 5 ppm in feed): 1.64 % BW
Influence on body weight gain (grams) ([2]; male broilers, 5 ppm in feed): 1886 grams
Abdominal fat pad (% BW) ([2]; male broilers, 10 ppm in feed): 1.63 % BW
Influence on body weight gain (grams) ([2]; male broilers, 10 ppm in feed): 1887 grams
Decrease of fat pads ([2]; 5 ppm): 17.2%
Decrease of fat pads ([2]; 10 ppm): 17.7%
Effect on body fat [3]: significantly decreases body fat
Effect on body fat [4]: significantly decreases body fat

CC(C)(C)NCC(O)c1cc(Cl)c(N)c(Cl)c1 (racemic) [clenbuterol, 4-amino-α-[(tert-butylamino)methyl]-3,5-dichlorobenzyl alcohol]
Effect on body weights of broiler chicken ([5]; Dalrymple et al. 1984): increased
Effect on abdominal fat weight ([5]; chicken, Hamano et al. 1998): could not find any effect
Reduction of abdominal fat pad ([5]; female chicken, Dalrymple et al. 1984): 8.5%
Reduction of fat pad ([5]; female chicken): 8.5%
Reduction of abdominal fat pad ([5]; male chicken, Dalrymple et al. 1984): did not reduce
Reduction of fat pad ([5]; male chicken): 6.0%

CC(C)(C)NC[C@@H](O)c1ccc(O)c(CO)c1 [S-salbutamol]
Reduction of fat content in the bodies of mammals and birds [1]: did not reduce fat
Smooth muscle hyperreactivity (smooth muscle): causes smooth muscle hyperreactivity

CC(C)(C)NCC(O)c1ccc(O)c(CO)c1 (racemic) [RS-salbutamol]
Mortality (out of 24 birds) (Cobb broilers; 10 ppm in feed): caused fatalities and 2/24
Tissue drug concentration ([6]; racemate-treated animals): 61.3 ng/g
Concentration of total salbutamol in liver ([6]; treatment 10 ppm RS-salbutamol in feed, Day 14 to Day 28): 61.3 ng of drug per g of liver
